ChEMBL document CHEMBL1129576, “Nucleosides and nucleotides. 158. 1-(3-C-ethynyl-beta-D-ribo-pentofuranosyl)-cytosine, 1-(3-C-ethynyl-beta-D-ribo-pentofuranosyl)uracil, and their nucleobase analogues as new potential multifunctional antitumor nucleosides with a broad spectrum of activity” (J Med Chem, 1996)
One block for each compound: values may come before it.

Columns and labels:
A-375 [1] = assay: In vitro tumor cell growth inhibitory activity against Human melanoma cell lines. A375; type: functional, cell-based
A-431 = assay: In vitro tumor cell growth inhibitory activity against Human […] A431 cell lines; type: functional, cell-based
HCT-15 = assay: In vitro tumor cell growth inhibitory activity against HCT-15; type: functional, cell-based; conditions: Homo sapiens
HOS = assay: In vitro tumor cell growth inhibitory activity against Human osteosarcoma cell lines. HOS; type: functional, cell-based
HT-1080 = assay: In vitro tumor cell growth inhibitory activity against Human fibrosarcoma HT1080 cell lines.; type: functional, cell-based
[2] = system: KATO III stomach cancer cell line; assay: In vitro tumor cell growth inhibitory activity of Human stomach (adenocarcinoma) cell lines. KATO-III; type: functional, cell-based
KK-47 cell line = assay: In vitro tumor cell growth inhibitory activity against Human bladder carcinoma cell lines. kK-47; type: functional, cell-based
KB [3] = assay: In vitro tumor cell growth inhibitory activity against human nasopharyngeal KB cell lines; type: functional, cell-based
L1210 = assay: In vitro tumor cell growth inhibitory activity against mouse leukemia L1210 cell lines.; type: functional, cell-based
MDA-MB-231 = assay: In vitro tumor cell growth inhibitory activity against Human breast (adenocarcinoma) cell lines. […]; type: functional, cell-based
MKN-28 = assay: In vitro tumor cell growth inhibitory activity against Human stomach (adenocarcinoma) cell lines. MKN-28; type: functional, cell-based
MCF7 = assay: In vitro tumor cell growth inhibitory activity against Human breast (adenocarcinoma) cell lines. MCF-7; type: functional, cell-based
MG-63 = assay: In vitro tumor cell growth inhibitory activity against Human osteosarcoma cell lines MG-63.; type: functional, cell-based
Lu-65 = assay: In vitro tumor cell growth inhibitory activity against Human lung large-cell carcinoma Lu-65 cell lines.; type: functional, cell-based
Mus musculus [4] = assay: In vivo inhibitory activity against H-81 tumor xenograft of stomach in nude mice at a concentration of 2 mg/kg for 10 days; type: functional
Mus musculus [5] = assay: In vivo inhibitory activity against Hucc-T1 cells tumor xenograft of bile duct in nude mice at a concentration of 2 mg/kg for 10 days; type: functional
Mus musculus [6] = assay: In vivo inhibitory activity against JRC-11 cell tumor xenograft of renal in nude mice at a concentration of 2 mg/kg for 10 days; type: functional
Mus musculus [7] = assay: In vivo inhibitory activity against KM12C tumor xenograft of […] in nude mice at a concentration of 2 mg/kg for 10 days; type: functional
Mus musculus [8] = assay: In vivo inhibitory activity against AZ-521 tumor xenograft of stomach in nude mice at a concentration of 2 mg/kg for 10 days; type: functional
Mus musculus [9] = assay: In vivo inhibitory activity against BxPC-3 tumor xenograft of pancreas in nude mice at a concentration of 2 mg/kg for 10 days; type: functional
Mus musculus [10] = assay: In vivo inhibitory activity against CO-3 tumor xenograft of […] in nude mice at a concentration of 2 mg/kg for 10 days; type: functional
Mus musculus [11] = assay: In vivo inhibitory activity against DLD-1 tumor xenograft of […] in nude mice at a concentration of 2 mg/kg for 10 days; type: functional
Mus musculus [12] = assay: In vivo inhibitory activity against H-31 cells tumor xenograft of breast in nude mice at a concentration of 2 mg/kg for 10 days; type: functional
Mus musculus [13] = assay: In vivo inhibitory activity against NUGC-3 tumor xenograft of stomach in nude mice at a concentration of 2 mg/kg for 10 days; type: functional
Mus musculus [14] = assay: In vivo inhibitory activity against PAN-12 tumor xenograft of pancreas in nude mice at a concentration of 2 mg/kg for 10 days; type: functional
NAKAJIMA = assay: In vitro tumor cell growth inhibitory activity against Human stomach (adenocarcinoma) cell lines. h) NAKAJIMA; type: functional, cell-based
NCI-H417 = assay: In vitro tumor cell growth inhibitory activity against Human lung small-cell carcinoma cell NCI-H-417; type: functional, cell-based
NUGC-4 = assay: In vitro tumor cell growth inhibitory activity of Human stomach (adenocarcinoma) cell lines. NUGC-4; type: functional, cell-based
PC10 = assay: In vitro tumor cell growth inhibitory activity against Human lung (adenocarcinoma) cell lines PC-10; type: functional, cell-based
PC-8 = assay: In vitro tumor cell growth inhibitory activity against Human lung (adenocarcinoma) cell lines. PC-8; type: functional, cell-based
PC-9 = assay: In vitro tumor cell growth inhibitory activity against Human lung (adenocarcinoma) cell lines PC-9; type: functional, cell-based
[15] = In vitro tumor cell growth inhibitory activity against Human lung squamous-cell carcinoma cell lines QG-95; type: functional
QG-56 = assay: In vitro tumor cell growth inhibitory activity against Human lung squamous-cell carcinoma cell linesQG-56; type: functional, cell-based
QG-90 = assay: In vitro tumor cell growth inhibitory activity against Human lung small-cell carcinoma cell lines. QG-90; type: functional, cell-based
QG-96 = assay: In vitro tumor cell growth inhibitory activity against Human lung small-cell carcinoma cellb) QG-96; type: functional, cell-based
SW48 [16] = assay: In vitro tumor cell growth inhibitory activity against Human colon (adenocarcinoma) cell lines. SW-48; type: functional, cell-based
SW480 [17] = assay: In vitro tumor cell growth inhibitory activity against Human colon (adenocarcinoma) cell lines. SW-480; type: functional, cell-based
SK-MEL-28 = assay: In vitro tumor cell growth inhibitory activity against Human melanoma cell lines. SK-MEL-28; type: functional, cell-based
ST-KM-1 = assay: In vitro tumor cell growth inhibitory activity against Human stomach (adenocarcinoma) cell linesST-KM; type: functional, cell-based
T-24 = assay: In vitro tumor cell growth inhibitory activity against Human bladder carcinoma cell lines. T24; type: functional, cell-based
fLS = assay: In vitro tumor cell growth inhibitory activity of Human stomach (adenocarcinoma) cell lines. fLS; type: functional, cell-based
YMB-1-E = assay: In vitro tumor cell growth inhibitory activity against Human breast (adenocarcinoma) cell lines YMB-1-E.; type: functional, cell-based
KB [18] = assay: In vitro tumor cell growth inhibitory activity against Human melanoma cell lines. KB; type: functional, cell-based
PANC-1 = assay: In vitro tumor cell growth inhibitory activity against Human pancreas (adenocarcinoma) cell lines. PANC-1; type: functional, cell-based
NCI-H82 (Homo sapiens) = assay: In vitro tumor cell growth inhibitory activity against Human lung small-cell carcinoma cellc) NCI-H-82
[19] = system: MIA PaCa-2 (Homo sapiens); assay: In vitro tumor cell growth inhibitory activity against Human pancreas (adenocarcinoma) cell Mia-PaCa-2
[20] = In vitro tumor cell growth inhibitory activity against Human stomach (adenocarcinoma) cell lines STSA-1
MKN-45 (Homo sapiens) = assay: In vitro tumor cell growth inhibitory activity against Human stomach (adenocarcinoma) cell lines. MKN-45
A-375 [21] = assay: In vitro tumor cell growth inhibitory activity against Human melanoma cell lines A375; type: functional, cell-based
COLO 320DM = assay: In vitro tumor cell growth inhibitory activity against i Human colon (adenocarcinoma) cell lines. COLO 320DM; type: functional, cell-based
Mus musculus [22] = assay: In vivo inhibitory activity against Hucc-T1 cells tumor xenograft of bile duct in nude mice at a concentration of 0.25 mg/kg for 10 days; type: functional
Mus musculus [23] = assay: In vivo inhibitory activity against JRC-11 cells tumor xenograft of renal in nude mice at a concentration of 0.25 mg/kg for 10 days; type: functional
Mus musculus [24] = assay: In vivo tumor cell growth inhibitory activity against CO-3 tumor xenograft of colon in nude mice at a concentration of 0.25 mg/kg for 10 days; type: functional
Mus musculus [25] = assay: In vivo inhibitory activity against DLD-1 tumor xenograft of colon in nude mice at a concentration of 0.25 mg/kg for 10 days; type: functional
Mus musculus [26] = assay: In vivo inhibitory activity against H-31 cells tumor xenograft of breast in nude mice at a concentration of 0.25 mg/kg for 10 days; type: functional
Mus musculus [27] = assay: In vivo tumor cell growth inhibitory activity against KM12C tumor xenograft of […] in nude mice at a concentration of 0.25 mg/kg for 10 days; type: functional
Mus musculus [28] = assay: In vivo tumor cell growth inhibitory activity against NUGC-3 tumor xenograft of stomach in nude mice at a concentration of 0.25 mg/kg for 10 days; type: functional
Mus musculus [29] = assay: In vivo tumor cell growth inhibitory activity of CO-3 tumor xenograft of […] in nude mice at a concentration of 0.25 mg/kg for 10 days; type: functional
Mus musculus [30] = assay: In vivo tumor cell growth inhibitory activity of H-81 tumor xenograft of stomach in nude mice at a concentration of 0.25 mg/kg for 10 days; type: functional
SW48 [31] = assay: In vitro tumor cell growth inhibitory activity against i Human colon (adenocarcinoma) cell lines. SW-48; type: functional, cell-based
SW480 [32] = assay: In vitro tumor cell growth inhibitory activity against i Human colon (adenocarcinoma) cell lines. SW-480; type: functional, cell-based
Mus musculus [33] = assay: In vivo inhibitory activity against PAN-12 tumor xenograft of pancreas in nude mice at a concentration of 0.25 mg/kg for 10 days; type: functional

- IC50 (A-375 [1]): 21 nM
- IC50 (A-431): 290 nM
- IC50 (HCT-15): 75 nM
- IC50 (HT-1080): 160 nM
- IC50 [2]: 31 nM
- IC50 (KB [3]): 29 nM
- IC50 (L1210): 130 nM
- IC50 (MDA-MB-231): > 1900 nM
- IC50 (MKN-28): 65 nM
- IC50 (MCF7): 200 nM
- IC50 (NCI-H417): 110 nM
- IC50 (PC-9): 190 nM
- IC50 (SW48 [16]): > 1900 nM
- IC50 (SW480 [17]): 340 nM
- IC50 (SK-MEL-28): 86 nM
- IC50 (KB [18]): 29 nM
- IC50 (PANC-1): > 1900 nM
- IC50 (NCI-H82 (Homo sapiens)): 230 nM
- IC50 [19]: 54 nM
- IC50 [20]: 1900 nM
- IC50 (MKN-45 (Homo sapiens)): 52 nM
SMILES: C#C[C@]1(O)[C@@H](CO)O[C@@H](n2ccc(=O)[nH]c2=O)[C@@H]1O
- IC50 (HOS): 1800 nM
- IC50 (KK-47 cell line): 89 nM
- IC50 (MG-63): > 1900 nM
- IC50 (Lu-65): 89 nM
- Inhibition ratio (Mus musculus [4]): 92%
- Inhibition ratio (Mus musculus [5]): 64%
- Inhibition ratio (Mus musculus [6]): 75%
- Inhibition ratio (Mus musculus [7]): 81%
- Inhibition ratio (Mus musculus [8]): 81%
- Inhibition ratio (Mus musculus [9]): 35%
- Inhibition ratio (Mus musculus [10]): 90%
- Inhibition ratio (Mus musculus [11]): 73%
- Inhibition ratio (Mus musculus [12]): 82%
- Inhibition ratio (Mus musculus [13]): 54%
- Inhibition ratio (Mus musculus [14]): 81%
- IC50 (NAKAJIMA): 780 nM
- IC50 (NUGC-4): 220 nM
- IC50 (PC10): > 1900 nM
- IC50 (PC-8): 330 nM
- IC50 [15]: 280 nM
- IC50 (QG-56): 150 nM
- IC50 (QG-90): 1000 nM
- IC50 (QG-96): 380 nM
- IC50 (ST-KM-1): 86 nM
- IC50 (T-24): 210 nM
- IC50 (fLS): 230 nM
- IC50 (YMB-1-E): > 1900 nM

- IC50 (KB [3]): 460 nM
- IC50 (L1210): 530 nM
SMILES: C#C[C@]1(O)[C@@H](CO)OC(n2cc(F)c(N)nc2=O)[C@@H]1O (single isomer, unassigned)

- IC50 (KB [3]): 1400 nM
- IC50 (L1210): 2500 nM
SMILES: C#CC1(O)[C@@H](CO)O[C@@H](n2cc(F)c(=O)[nH]c2=O)[C@@H]1O (single isomer, unassigned)

- IC50 (A-375 [21]): 26 nM
- IC50 (A-431): 33 nM
- IC50 (COLO 320DM): 20 nM
- IC50 (HCT-15): 8.2 nM
- IC50 (HT-1080): 73 nM
- IC50 [2]: 31 nM
- IC50 (KB [3]): 28 nM
- IC50 (L1210): 16 nM
- IC50 (MDA-MB-231): 24 nM
- IC50 (MKN-28): 210 nM
- IC50 (MCF7): 69 nM
- IC50 (NCI-H417): 43 nM
- IC50 (PC-9): 110 nM
- IC50 (SW48 [31]): > 1900 nM
- IC50 (SW480 [32]): 260 nM
- IC50 (PANC-1): > 1900 nM
- IC50 (NCI-H82 (Homo sapiens)): 120 nM
- IC50 [19]: 15 nM
- IC50 [20]: 150 nM
- IC50 (MKN-45 (Homo sapiens)): 8.8 nM
SMILES: C#C[C@]1(O)[C@@H](CO)O[C@@H](n2ccc(N)nc2=O)[C@@H]1O
- IC50 (HOS): 1000 nM
- IC50 (KK-47 cell line): 120 nM
- IC50 (MG-63): 150 nM
- IC50 (Lu-65): 32 nM
- Inhibition ratio (Mus musculus [22]): 55%
- Inhibition ratio (Mus musculus [23]): 73%
- Inhibition ratio (Mus musculus [24]): 88%
- Inhibition ratio (Mus musculus [25]): 78%
- Inhibition ratio (Mus musculus [26]): 76%
- Inhibition ratio (Mus musculus [27]): 83%
- Inhibition ratio (Mus musculus [28]): 84%
- Inhibition ratio (Mus musculus [29]): 80%
- Inhibition ratio (Mus musculus [30]): 92%
- IC50 (NAKAJIMA): 170 nM
- IC50 (NUGC-4): 24 nM
- IC50 (PC10): 160 nM
- IC50 (PC-8): 90 nM
- IC50 [15]: 210 nM
- IC50 (QG-56): 45 nM
- IC50 (QG-90): 130 nM
- IC50 (QG-96): 390 nM
- IC50 (ST-KM-1): 47 nM
- IC50 (T-24): 28 nM
- IC50 (fLS): 21 nM
- IC50 (YMB-1-E): 160 nM
- Inhibition ratio (Mus musculus [33]): 75%
